From ChEMBL document CHEMBL1909046, “DrugMatrix in vitro pharmacology data”

Tests used:
[1] = biological target: T1, Alpha-1B adrenergic receptor (Rattus norvegicus, UniProt P15823); test: DRUGMATRIX: Alpha-1B adrenergic receptor radioligand binding (ligand: prazosin); assay type: cell membranes, Wistar, Liver, Membrane; conditions: Not Active = under 50% inhibition at 10 µM
T1 sequence (P15823 whole entry): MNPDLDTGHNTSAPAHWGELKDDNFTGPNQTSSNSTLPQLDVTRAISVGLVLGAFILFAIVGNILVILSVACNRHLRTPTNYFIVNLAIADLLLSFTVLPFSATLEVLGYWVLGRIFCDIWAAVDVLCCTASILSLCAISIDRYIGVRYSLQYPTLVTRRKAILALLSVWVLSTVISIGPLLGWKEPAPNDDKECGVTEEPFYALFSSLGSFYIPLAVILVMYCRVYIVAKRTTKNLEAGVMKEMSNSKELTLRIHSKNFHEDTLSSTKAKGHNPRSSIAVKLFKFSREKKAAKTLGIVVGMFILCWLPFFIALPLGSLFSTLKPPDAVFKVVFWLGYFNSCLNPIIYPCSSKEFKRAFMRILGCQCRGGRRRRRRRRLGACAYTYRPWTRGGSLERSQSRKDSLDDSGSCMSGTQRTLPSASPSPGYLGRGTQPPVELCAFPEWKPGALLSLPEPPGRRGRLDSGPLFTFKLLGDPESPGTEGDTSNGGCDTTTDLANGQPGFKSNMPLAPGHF

[2] = biological target: T2, Alpha-2C adrenergic receptor (Homo sapiens, UniProt P18825); test: DRUGMATRIX: Adrenergic Alpha-2C radioligand binding (ligand: [3H] MK-912); assay type: cell membranes, Sf9, Membrane; conditions: sf9
T2 sequence (P18825 whole entry): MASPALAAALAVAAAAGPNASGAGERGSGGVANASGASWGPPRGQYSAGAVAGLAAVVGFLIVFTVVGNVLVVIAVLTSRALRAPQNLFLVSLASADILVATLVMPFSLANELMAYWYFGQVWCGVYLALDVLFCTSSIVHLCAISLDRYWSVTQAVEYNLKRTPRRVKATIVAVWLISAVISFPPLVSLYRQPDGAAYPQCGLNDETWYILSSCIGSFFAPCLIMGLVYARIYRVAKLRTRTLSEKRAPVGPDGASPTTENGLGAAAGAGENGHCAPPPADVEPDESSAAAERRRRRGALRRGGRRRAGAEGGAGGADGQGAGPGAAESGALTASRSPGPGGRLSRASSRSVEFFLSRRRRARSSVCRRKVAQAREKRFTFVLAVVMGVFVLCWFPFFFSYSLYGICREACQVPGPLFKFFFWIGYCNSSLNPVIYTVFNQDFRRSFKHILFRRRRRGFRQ

[3] = DRUGMATRIX: Atrial Natriuretic Factor (ANF) radioligand binding (ligand: [125I] ANF (rat)); assay type: cell membranes, Cavia porcellus, Dunkin-Hartley, Adrenal gland, Membrane; conditions: Not Active = under 50% inhibition at 10 µM
[4] = DRUGMATRIX: beta-Lactamase enzyme inhibition (substrate: Nitrocefin); set-up: species or system Bacillus cereus; conditions: Not Active = under 50% inhibition at 10 µM
[5] = DRUGMATRIX: Calcium Channel Type L, Benzothiazepine radioligand binding (ligand: [3H] Diltiazem); assay type: cell membranes, Rattus norvegicus, Wistar, Brain, Membrane; conditions: Not Active = under 50% inhibition at 10 µM
[6] = DRUGMATRIX: Calcium Channel Type L, Dihydropyridine radioligand binding (ligand: [3H] Nitrendipine); assay type: cell membranes, Rattus norvegicus, Wistar, Cerebral cortex, Membrane; conditions: Not Active = under 50% inhibition at 10 µM
[7] = DRUGMATRIX: Serotonin (5-Hydroxytryptamine) 5-HT3 radioligand binding (ligand: [3H] GR-65630); assay type: cell membranes, Membrane; conditions: hek293; Not Active = under 50% inhibition at 10 µM
Vasopressin V1a receptor = Vasopressin V1a receptor (Homo sapiens, UniProt P37288); assay type: cell membranes, Membrane; conditions: hek293; further: in other assays of this panel Not Active means under 50% inhibition at 10 µM
[8] = biological target: C-C chemokine receptor type 2 (Homo sapiens, UniProt P41597); assay type: cell membranes, CHO-K1, Membrane; conditions: cho-k1; further: in other assays of this panel Not Active means under 50% inhibition at 10 µM
[9] = DRUGMATRIX: GABAA, Chloride Channel, TBOB radioligand binding (ligand: [3H] TBOB); assay type: cell membranes, Rattus norvegicus, Wistar, Cerebral cortex, Membrane; conditions: Not Active = under 50% inhibition at 10 µM
Leukotriene C4 synthase = biological target: T3, Leukotriene C4 synthase (Cavia porcellus, UniProt A6XA80); test: biochemical; assay type: tissue-based, Lung;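 further: enzyme inhibition assay of leukotriene C4 synthase, using LTA4 as the substrate; in other assays of this panel Not Active means under 50% inhibition at 10 µM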
T3 sequence (A6XA80 whole entry): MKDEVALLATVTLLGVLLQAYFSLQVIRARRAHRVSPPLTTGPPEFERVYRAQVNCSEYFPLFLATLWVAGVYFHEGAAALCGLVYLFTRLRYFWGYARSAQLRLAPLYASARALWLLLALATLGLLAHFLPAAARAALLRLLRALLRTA

[10] = biological target: cGMP-specific 3',5'-cyclic phosphodiesterase (Homo sapiens, UniProt O76074); test: DRUGMATRIX: Phosphodiesterase PDE5 enzyme inhibition (substrate: [3H]cGMP + cGMP); assay type: tissue-based, Platelet; conditions: platelet; Not Active = under 50% inhibition at 10 µM
[11] = biological target: T4, 5-hydroxytryptamine receptor 1A (Rattus norvegicus, UniProt P19327); assay type: cell membranes, CHO-K1, Membrane; conditions: cho-k1; further: in other assays of this panel Not Active means under 50% inhibition at 10 µM
T4 sequence (P19327 whole entry): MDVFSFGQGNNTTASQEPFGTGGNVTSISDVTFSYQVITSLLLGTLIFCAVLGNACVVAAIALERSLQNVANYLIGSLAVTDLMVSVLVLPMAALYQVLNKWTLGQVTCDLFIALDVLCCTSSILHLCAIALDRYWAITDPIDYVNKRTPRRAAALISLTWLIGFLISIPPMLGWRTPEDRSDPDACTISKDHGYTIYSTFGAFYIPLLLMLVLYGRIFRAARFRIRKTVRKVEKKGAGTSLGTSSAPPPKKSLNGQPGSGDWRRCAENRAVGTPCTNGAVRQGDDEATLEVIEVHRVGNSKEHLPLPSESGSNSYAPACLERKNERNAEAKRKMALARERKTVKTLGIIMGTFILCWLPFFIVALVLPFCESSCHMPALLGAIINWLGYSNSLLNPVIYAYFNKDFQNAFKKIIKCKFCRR

Acetylcholinesterase = Acetylcholinesterase (Homo sapiens, UniProt P22303); test: DRUGMATRIX: Acetylcholinesterase enzyme inhibition (substrate: acetylthiocholine); assay type: cell-based, HEK293; conditions: Not Active = under 50% inhibition at 10 µM
Cytochrome P450 3A4 = Cytochrome P450 3A4 (Homo sapiens, UniProt P08684); conditions: bti-tn-5b1-4; further: in other assays of this panel Not Active means under 50% inhibition at 10 µM
[12] = biological target: Voltage-gated inwardly rectifying potassium channel KCNH2 (Homo sapiens, UniProt Q12809); conditions: hek293; further: in other assays of this panel Not Active means under 50% inhibition at 10 µM
Voltage-gated inwardly rectifying potassium channel KCNH2, sequence (Q12809 whole entry): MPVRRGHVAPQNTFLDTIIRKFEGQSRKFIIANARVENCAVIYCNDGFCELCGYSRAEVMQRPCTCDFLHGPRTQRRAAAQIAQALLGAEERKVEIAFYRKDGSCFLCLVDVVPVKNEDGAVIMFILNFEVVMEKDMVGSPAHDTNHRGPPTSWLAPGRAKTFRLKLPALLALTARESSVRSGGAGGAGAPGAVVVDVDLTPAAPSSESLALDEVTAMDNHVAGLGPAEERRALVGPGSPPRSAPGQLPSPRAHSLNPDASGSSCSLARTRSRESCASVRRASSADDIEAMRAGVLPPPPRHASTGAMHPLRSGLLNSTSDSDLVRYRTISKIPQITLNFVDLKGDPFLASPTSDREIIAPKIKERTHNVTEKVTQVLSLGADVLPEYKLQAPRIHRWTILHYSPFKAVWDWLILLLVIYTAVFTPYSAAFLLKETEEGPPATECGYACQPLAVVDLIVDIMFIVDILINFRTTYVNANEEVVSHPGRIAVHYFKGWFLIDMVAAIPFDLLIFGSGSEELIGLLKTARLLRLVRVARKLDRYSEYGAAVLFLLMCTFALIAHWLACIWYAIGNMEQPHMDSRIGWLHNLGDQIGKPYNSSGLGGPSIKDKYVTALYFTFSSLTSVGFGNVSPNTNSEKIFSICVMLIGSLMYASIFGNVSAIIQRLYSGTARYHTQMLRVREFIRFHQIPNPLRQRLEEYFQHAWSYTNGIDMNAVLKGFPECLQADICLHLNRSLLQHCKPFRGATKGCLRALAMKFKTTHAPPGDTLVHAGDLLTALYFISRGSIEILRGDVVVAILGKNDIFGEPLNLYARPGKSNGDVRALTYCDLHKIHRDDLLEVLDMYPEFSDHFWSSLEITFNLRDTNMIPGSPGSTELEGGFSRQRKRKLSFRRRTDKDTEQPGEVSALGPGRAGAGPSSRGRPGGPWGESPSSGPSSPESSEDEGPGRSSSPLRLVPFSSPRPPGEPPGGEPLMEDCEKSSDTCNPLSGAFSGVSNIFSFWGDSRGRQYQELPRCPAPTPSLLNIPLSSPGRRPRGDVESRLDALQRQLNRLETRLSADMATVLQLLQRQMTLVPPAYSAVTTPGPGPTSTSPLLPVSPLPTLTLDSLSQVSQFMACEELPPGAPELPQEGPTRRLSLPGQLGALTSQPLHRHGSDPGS

Acetylcholinesterase, sequence (P22303 whole entry): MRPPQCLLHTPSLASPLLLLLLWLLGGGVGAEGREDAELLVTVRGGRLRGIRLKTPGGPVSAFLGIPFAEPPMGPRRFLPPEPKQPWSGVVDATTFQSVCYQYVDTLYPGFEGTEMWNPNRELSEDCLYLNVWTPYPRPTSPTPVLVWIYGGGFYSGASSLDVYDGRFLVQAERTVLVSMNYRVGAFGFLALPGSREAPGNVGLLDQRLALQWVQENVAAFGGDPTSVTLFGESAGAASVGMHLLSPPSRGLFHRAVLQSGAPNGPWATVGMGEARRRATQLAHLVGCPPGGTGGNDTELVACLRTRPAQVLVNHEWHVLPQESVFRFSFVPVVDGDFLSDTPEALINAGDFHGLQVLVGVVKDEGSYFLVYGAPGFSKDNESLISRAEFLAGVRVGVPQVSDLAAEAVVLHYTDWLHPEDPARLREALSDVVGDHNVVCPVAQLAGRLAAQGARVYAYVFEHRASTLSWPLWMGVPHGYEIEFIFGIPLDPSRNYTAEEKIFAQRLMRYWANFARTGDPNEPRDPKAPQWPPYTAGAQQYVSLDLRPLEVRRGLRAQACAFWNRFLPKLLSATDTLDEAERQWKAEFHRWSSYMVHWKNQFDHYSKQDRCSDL
Vasopressin V1a receptor, sequence (P37288 whole entry): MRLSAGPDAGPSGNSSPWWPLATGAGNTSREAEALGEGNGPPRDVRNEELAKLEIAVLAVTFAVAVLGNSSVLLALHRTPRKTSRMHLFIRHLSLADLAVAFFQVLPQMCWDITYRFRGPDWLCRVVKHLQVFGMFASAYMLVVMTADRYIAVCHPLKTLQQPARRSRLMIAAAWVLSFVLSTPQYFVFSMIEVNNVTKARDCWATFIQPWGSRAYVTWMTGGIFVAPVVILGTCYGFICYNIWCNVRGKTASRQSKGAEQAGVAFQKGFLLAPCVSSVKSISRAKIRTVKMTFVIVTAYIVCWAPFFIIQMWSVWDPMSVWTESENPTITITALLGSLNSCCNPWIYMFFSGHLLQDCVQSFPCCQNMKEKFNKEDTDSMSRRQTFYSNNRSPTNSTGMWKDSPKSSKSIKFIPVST
Cytochrome P450 3A4, sequence (P08684 whole entry): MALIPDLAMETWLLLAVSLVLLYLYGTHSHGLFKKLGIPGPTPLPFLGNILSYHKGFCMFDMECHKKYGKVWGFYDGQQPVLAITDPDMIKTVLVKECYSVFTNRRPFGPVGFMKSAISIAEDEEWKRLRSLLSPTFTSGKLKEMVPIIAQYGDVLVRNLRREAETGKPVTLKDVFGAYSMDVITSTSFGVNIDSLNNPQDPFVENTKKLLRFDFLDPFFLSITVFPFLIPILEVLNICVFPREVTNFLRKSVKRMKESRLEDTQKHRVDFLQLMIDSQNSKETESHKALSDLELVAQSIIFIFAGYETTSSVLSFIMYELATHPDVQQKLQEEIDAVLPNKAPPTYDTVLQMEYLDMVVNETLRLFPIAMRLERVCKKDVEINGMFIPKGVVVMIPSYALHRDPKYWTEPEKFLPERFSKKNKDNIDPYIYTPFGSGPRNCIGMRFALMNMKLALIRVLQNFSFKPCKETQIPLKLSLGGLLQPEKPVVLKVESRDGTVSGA
C-C chemokine receptor type 2, sequence (P41597 whole entry): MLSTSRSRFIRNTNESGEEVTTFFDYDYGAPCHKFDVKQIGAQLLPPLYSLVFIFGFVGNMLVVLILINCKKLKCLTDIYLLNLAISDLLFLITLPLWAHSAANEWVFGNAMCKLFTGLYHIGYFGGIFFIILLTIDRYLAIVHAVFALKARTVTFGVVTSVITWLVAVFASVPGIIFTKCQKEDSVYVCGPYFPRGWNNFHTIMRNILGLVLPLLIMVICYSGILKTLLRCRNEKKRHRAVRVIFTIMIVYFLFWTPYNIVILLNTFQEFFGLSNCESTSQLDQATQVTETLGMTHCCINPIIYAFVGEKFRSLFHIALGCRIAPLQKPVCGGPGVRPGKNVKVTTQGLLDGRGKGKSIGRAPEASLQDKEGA

| Structure (SMILES) | IC50 [1] | IC50 [2] | IC50 [3] | Ki [3] | IC50 [4] | IC50 [5] | Ki [5] | IC50 [6] | Ki [6] | IC50 [7] | Ki [7] | IC50 (Vasopressin V1a receptor) | IC50 [8] | IC50 (Leukotriene C4 synthase) | IC50 [10] | IC50 [11] | IC50 (Cytochrome P450 3A4) | Ki (Cytochrome P450 3A4) | IC50 [12] | Ki [12] | other results |
| --- | --- | --- | --- | --- | --- | --- | --- | --- | --- | --- | --- | --- | --- | --- | --- | --- | --- | --- | --- | --- | --- |
| C=C(C)[C@@H]1[C@H]2OC(=O)[C@@H]1[C@]1(O)C[C@H]3O[C@]34C(=O)O[C@H]2[C@]14C [PICROTOXININ] | Not Active | Not Active | Not Active | Not Active | Not Active | Not Active | Not Active | Not Active | Not Active | Not Active | Not Active | Not Active | Not Active | Not Active | Not Active | Not Active | Not Active | Not Active | Not Active | Not Active | Ki [4]: Not Active; IC50 ([9]; read-out: IC50): 0.368 µM; Ki ([9]; read-out: Ki): 0.33 µM; IC50 (Acetylcholinesterase; hek293): Not Active |
| c1ccc2c(c1)cc1ccc3cccc4ccc2c1c34 | Not Active | Not Active | Not Active | Not Active | – | Not Active | Not Active | Not Active | Not Active | Not Active | Not Active | Not Active | Not Active | Not Active | Not Active | Not Active | Not Active | Not Active | Not Active | Not Active | IC50 ([4]; read-out: IC50): 20.7 µM; IC50 [9]: Not Active; Ki [9]: Not Active; IC50 (Acetylcholinesterase; read-out: IC50): 28 µM |
| C[C@]12CCC(=O)C=C1CC[C@@H]1[C@@H]2C(=O)C[C@@]2(C)[C@H]1CC[C@]2(O)C(=O)CO [CORTISONE] | Not Active | Not Active | Not Active | Not Active | Not Active | Not Active | Not Active | Not Active | Not Active | Not Active | Not Active | Not Active | Not Active | Not Active | Not Active | Not Active | Not Active | Not Active | Not Active | Not Active | Ki [4]: Not Active; IC50 [9]: Not Active; Ki [9]: Not Active; IC50 (Acetylcholinesterase; hek293): Not Active |
| CC[C@@]1(O)C(=O)OCc2c1cc1n(c2=O)Cc2cc3ccccc3nc2-1 [CAMPTOTHECIN] | Not Active | Not Active | Not Active | Not Active | Not Active | Not Active | Not Active | Not Active | Not Active | Not Active | Not Active | Not Active | Not Active | Not Active | Not Active | Not Active | Not Active | Not Active | Not Active | Not Active | Ki [4]: Not Active; IC50 [9]: Not Active; Ki [9]: Not Active; IC50 (Acetylcholinesterase; hek293): Not Active |
| COc1ccc2c(c1)c(CC(=O)OCC(=O)O)c(C)n2C(=O)c1ccc(Cl)cc1 [ACEMETACIN] | Not Active | Not Active | Not Active | Not Active | Not Active | Not Active | Not Active | Not Active | Not Active | Not Active | Not Active | Not Active | Not Active | Not Active | Not Active | Not Active | Not Active | Not Active | Not Active | Not Active | Ki [4]: Not Active; IC50 [9]: Not Active; Ki [9]: Not Active; IC50 (Acetylcholinesterase; hek293): Not Active |
| N=C(N)NCCCCNC(=N)N.O=S(=O)(O)O [ARCAINE SULFATE] | Not Active | Not Active | Not Active | Not Active | Not Active | Not Active | Not Active | Not Active | Not Active | Not Active | Not Active | Not Active | Not Active | Not Active | Not Active | Not Active | Not Active | Not Active | Not Active | Not Active | Ki [4]: Not Active; IC50 [9]: Not Active; Ki [9]: Not Active; IC50 (Acetylcholinesterase; hek293): Not Active |
| CCOC(=O)c1ccc(N)cc1 [BENZOCAINE] | Not Active | Not Active | Not Active | Not Active | Not Active | Not Active | Not Active | Not Active | Not Active | Not Active | Not Active | Not Active | Not Active | Not Active | Not Active | Not Active | Not Active | Not Active | Not Active | Not Active | Ki [4]: Not Active; IC50 [9]: Not Active; Ki [9]: Not Active; IC50 (Acetylcholinesterase; hek293): Not Active |
